Columns and labels:
Mus musculus = organism: Mus musculus; assay: Inhibition of Wnt/beta-catenin pathway in mouse L Wnt3A cells at 10 uM after 48 hrs by TOP-flash dual reporter gene assay relative to control; format: cell-based
[1] = Inhibition of Wnt/beta-catenin pathway in mouse L Wnt3A cells after 48 hrs by TOP-flash dual reporter gene assay; format: cell-based; conditions: L Wnt-3A

Row | IC50 [1] [nM] | SMILES | inhibition (Mus musculus) [%]
1 | – | O=C(CCCN1C(=O)c2cc(Cl)c(Cl)cc2C1=O)Nc1ccc(-c2ccccc2)cn1 | -8
2 | – | O=C(CCCN1C(=O)c2cccc([N+](=O)[O-])c2C1=O)Nc1ccc(-c2ccccc2)cn1 | 17
3 | 0.57 | Cc1cc(-c2ncc(CC(=O)Nc3ccc(-c4cnccn4)cn3)cc2C)ccn1 [WNT-974] | 93
4 | 2790 | Cc1cccc2c1C(=O)N(CCCC(=O)Nc1ccc(-c3ccccc3)cn1)C2=O | 61
5 | – | O=C(CCCN1C(=O)c2ccc(Cl)cc2C1=O)Nc1ccc(-c2ccccc2)cn1 | 22
6 | – | O=C(CCCN1C(=O)c2cccc(F)c2C1=O)Nc1ccc(-c2ccccc2)cn1 | 44
7 | 280 | Cc1cccc2c1C(=O)N(CC(=O)Nc1ccc(-c3ccccc3)cn1)C2=O | 76
8 | – | O=C(CCCN1C(=O)c2c(F)ccc(F)c2C1=O)Nc1ccc(-c2ccccc2)cn1 | 37
9 | – | CC(C)(C)c1ccc2c(c1)C(=O)N(CCCC(=O)Nc1ccc(-c3ccccc3)cn1)C2=O | 23
10 | – | O=C(CCCN1C(=O)c2ccc(Br)cc2C1=O)Nc1ccc(-c2ccccc2)cn1 | 18
11 | – | Cc1ccc2c(c1)C(=O)N(CCCC(=O)Nc1ccc(-c3ccccc3)cn1)C2=O | 20
12 | > 10000 | Cc1cccc2c1C(=O)N(C(C)C(=O)Nc1ccc(-c3ccccc3)cn1)C2=O (stereo not given) | 39
13 | – | O=C(CCCN1C(=O)c2ccc(F)c(F)c2C1=O)Nc1ccc(-c2ccccc2)cn1 | 21
14 | – | O=C(CCCN1C(=O)c2ccc(F)cc2C1=O)Nc1ccc(-c2ccccc2)cn1 | 20
15 | > 10000 | Cc1cccc2c1C(=O)N(CCC(=O)Nc1ccc(-c3ccccc3)cn1)C2=O | 29
16 | – | O=C(CCCN1C(=O)c2c(Cl)c(Cl)c(Cl)c(Cl)c2C1=O)Nc1ccc(-c2ccccc2)cn1 | -5
17 | – | O=C(CCCN1C(=O)c2ccccc2C1=O)Nc1ccc(-c2ccccc2)cn1 | 34
18 | – | O=C(CCCN1C(=O)c2ccc(C#Cc3ccccc3)cc2C1=O)Nc1ccc(-c2ccccc2)cn1 | 7
19 | – | O=C(CCCN1C(=O)c2ccc([N+](=O)[O-])cc2C1=O)Nc1ccc(-c2ccccc2)cn1 | 19
20 | – | O=C(CCCN1C(=O)c2cccc(Cl)c2C1=O)Nc1ccc(-c2ccccc2)cn1 | 46

From ChEMBL document CHEMBL4368936, “Discovery and structure-activity relationship study of phthalimide-phenylpyridine conjugate as inhibitor of Wnt pathway” (Bioorg Med Chem Lett, 2019)
